According to US10913740B2, “JAK kinase inhibitor compounds for treatment of respiratory disease” (THERAVANCE BIOPHARMA R&D IP, LLC, priority 2015, dated 2021):
Read-outs that look alike come from different tables or passages of the source. Blank lines part the entries; values can stand above or below the compound they belong to.

Tests used:
[1] = Pharmacokinetics in plasma and lung in mouse; type: in vivo; settings: ratio of lung AUC (μg hr/g) to plasma AUC (μg hr/mL), oral aspiration, 0.2 mg/mL, 50 uL
Protocol: Plasma and lung levels of test compounds and ratios thereof were determined in the following manner. BALB/c mice from Charles River Laboratories were used in the assay. Test compounds were individually formulated in 20% propylene glycol in pH 4 citrate buffer at a concentration of 0.2 mg/mL and 50 uL of the dosing solution was introduced into the trachea of a mouse by oral aspiration. At various time points (typically 0.167, 2, 6, 24 hr) post dosing, blood samples were removed via cardiac puncture and intact lungs were excised from the mice. Blood samples were centrifuged (Eppendorf centrifuge, 5804R) for 4 minutes at approximately 12,000 rpm at 4° C. to collect plasma. Lungs were padded dry, weighed, and homogenized at a dilution of 1:3 in sterile water. Plasma and lung levels of test compound were determined by LC-MS analysis against analytical standards constructed into a standard curve in the test matrix. A lung to plasma ratio was determined as the ratio of the lung AUC in μg hr/g to the plasma AUC in μg hr/mL, where AUC is conventionally defined as the area under the curve of test compound concentration vs. time.

[2] = system: IL-13 induced pSTAT6 in lung tissue; experiment: Murine model of IL-13 induced pSTAT6 induction in lung tissue; type: in vivo; settings: mouse lung, Assay 5 conditions
Protocol: Il-13 is an important cytokine underlying the pathophysiology of asthma (Kudlacz et al. Eur. J. Pharmacol, 2008, 582, 154-161). IL-13 binds to cell surface receptors activating members of the Janus family of kinases (JAK) which then phosphorylate STAT6 and subsequently activates further transcription pathways. In the described model, a dose of IL-13 was delivered locally into the lungs of mice to induce the phosphorylation of STAT6 (pSTAT6) which is then measured as the endpoint.
Adult balb/c mice from Harlan were used in the assay. […] Animals were placed in lateral recumbency post dose and monitored for full recovery from anesthesia before being returned to their home cage. Four hours later, animals were once again briefly anesthetized and challenged with either vehicle or IL-13 (0.03 μg total dose delivered, 50 μL total volume) via oral aspiration before being monitored for recovery from anesthesia and returned to their home cage. One hour after vehicle or IL-13 administration, lungs were collected for both pSTAT6 detection using an anti-pSTAT6 ELISA (rabbit mAb capture/coating antibody; mouse mAb detection/report antibody: anti-pSTAT6-pY641; secondary antibody: anti-mouse IgG-HRP) and analyzed for total drug concentration as described above in Assay 4. […]

[3] = biological target: JAK1 (Homo sapiens (Human), UniProt P23458); experiment: LanthaScreen JAK biochemical assay (JAK1); settings: vs Examples 1, 7, 13, 6 respectively
Sequence of JAK1 (P23458 whole entry): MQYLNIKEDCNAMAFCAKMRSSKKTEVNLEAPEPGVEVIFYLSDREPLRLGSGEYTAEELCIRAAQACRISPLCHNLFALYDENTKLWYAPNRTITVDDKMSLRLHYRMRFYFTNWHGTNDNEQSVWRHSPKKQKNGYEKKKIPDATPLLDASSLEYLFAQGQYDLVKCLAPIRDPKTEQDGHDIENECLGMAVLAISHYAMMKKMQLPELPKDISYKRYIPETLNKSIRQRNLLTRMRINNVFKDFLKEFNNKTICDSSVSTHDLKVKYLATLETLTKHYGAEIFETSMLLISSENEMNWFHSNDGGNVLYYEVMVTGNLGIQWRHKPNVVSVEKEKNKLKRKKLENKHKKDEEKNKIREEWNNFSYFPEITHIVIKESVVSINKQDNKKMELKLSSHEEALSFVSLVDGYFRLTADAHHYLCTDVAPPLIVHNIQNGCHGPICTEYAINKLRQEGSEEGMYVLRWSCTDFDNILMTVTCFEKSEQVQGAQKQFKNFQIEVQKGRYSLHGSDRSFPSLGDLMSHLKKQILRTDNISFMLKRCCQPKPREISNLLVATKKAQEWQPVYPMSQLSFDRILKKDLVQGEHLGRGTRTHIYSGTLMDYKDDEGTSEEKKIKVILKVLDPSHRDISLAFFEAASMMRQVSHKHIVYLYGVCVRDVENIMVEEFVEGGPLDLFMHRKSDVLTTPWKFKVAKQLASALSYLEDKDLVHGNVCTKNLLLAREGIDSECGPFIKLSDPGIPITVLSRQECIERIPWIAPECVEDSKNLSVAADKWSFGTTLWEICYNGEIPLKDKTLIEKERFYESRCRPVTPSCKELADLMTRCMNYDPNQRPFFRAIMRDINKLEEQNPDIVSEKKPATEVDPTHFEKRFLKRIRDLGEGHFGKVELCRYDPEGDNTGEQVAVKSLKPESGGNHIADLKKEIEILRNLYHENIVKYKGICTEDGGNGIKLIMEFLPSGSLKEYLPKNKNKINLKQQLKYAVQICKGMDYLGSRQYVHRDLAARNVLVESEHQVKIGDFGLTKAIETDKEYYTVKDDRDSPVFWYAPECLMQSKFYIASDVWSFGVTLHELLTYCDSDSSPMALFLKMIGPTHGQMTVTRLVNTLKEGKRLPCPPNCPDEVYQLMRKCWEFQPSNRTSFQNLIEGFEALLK

[4] = system: interleukin-13 induced STAT6 phosphorylation in BEAS-2B human lung epithelial cells; experiment: AlphaScreen JAKI cellular potency assay (BEAS-2B); type: cell-based; settings: vs Examples 1, 7, 13, 6 respectively
[5] = mouse, in vivo
Protocol: Adult balb/c mice from Harlan were used in the assay. On the day of study, animals were lightly anesthetized with isoflurane and administered either vehicle or test compound (0.5 mg/mL, 50 μL total volume over several breaths) via oral aspiration. Animals were placed in lateral recumbency post dose and monitored for full recovery from anesthesia before being returned to their home cage. Four hours later, animals were once again briefly anesthetized and challenged with either vehicle or IL-13 (0.03 μg total dose delivered, 50 μL total volume) via oral aspiration before being monitored for recovery from anesthesia and returned to their home cage. One hour after vehicle or IL-13 administration, lungs were collected for both pSTAT6 detection using an anti-pSTAT6 ELISA (rabbit mAb capture/coating antibody; mouse mAb detection/report antibody: anti-pSTAT6-pY641; secondary antibody: anti-mouse IgG-HRP) and analyzed for total drug concentration as described above in Assay 4.
Selected compounds of the invention were characterized in both the pharmacokinetic assay (Assay 4) and pharmacodynamic assay (Assay 5). A good correlation was observed between test compound concentration in lung determined in the pharmacokinetic assay and in the pharmacodynamic assay at a similar time points post dosing. Observation of significant compound concentration in the mouse lung in the pharmacodynamic assay confirmed that the observed inhibition of IL-13 induced pSTAT6 induction was a result of the activity of the test compound.

[6] = Dynamic moisture sorption assessment; type: physicochemical; settings: humidity range of 5% to 90% relative humidity, room temperature (25° C.)
Protocol: Dynamic moisture sorption (DMS) measurement was performed using a VTI atmospheric microbalance, SGA-100 system (VTI Corp., Hialeah, Fla. 33016). A weighed sample was used and the humidity was lowest possible value (close to 0% RH) at the start of the analysis. The DMS analysis consisted of an initial drying step (˜0% RH) for 120 minutes, followed by two cycles of sorption and desorption with a scan rate of 5% RH/step over the humidity range of 5% RH to 90% RH. The DMS run was performed isothermally at 25° C.

Lung to Plasma ratio Assay 4 [1]: A (A denotes a ratio >100)
Structure (SMILES): CCc1cc(O)c(F)cc1-c1ccc2c(-c3nc4c([nH]3)CCN(CCN3CCC[C@@H]3C)C4)n[nH]c2c1 [Example 15, (S)-5-ethyl-2-fluoro-4-(3-(5-(2-(2-methylpyrrolidin-1-yl)ethyl)-4,5,6,7-tetrahydro-1H-imidazo[4,5-c]pyridin-2-yl)-1H-indazol-6-yl)phenol]

Lung to Plasma ratio Assay 4 [1]: A (A denotes a ratio >100)
Structure (SMILES): CCc1cc(O)c(F)cc1-c1ccc2c(-c3nc4c([nH]3)CCN(CC3CNC3)C4)n[nH]c2c1 [Example 14-7]

Structure (SMILES): CCc1cc(O)c(F)cc1-c1ccc2c(-c3nc4c([nH]3)CCN(CCNC3(C#N)CC3)C4)n[nH]c2c1 [Example 3-1]
pSTAT6 inhibition in the pharmacodynamic assay [2]: noted as exceptions

Lung to Plasma ratio Assay 4 [1]: A (A denotes a ratio >100)
Structure (SMILES): CCc1cc(O)c(F)cc1-c1ccc2c(-c3nc4c([nH]3)CCN(C[C@@H]3CCCN3C)C4)n[nH]c2c1 [Example 11, (S)-5-ethyl-2-fluoro-4-(3-(5-((1-methylpyrrolidin-2-yl)methyl)-4,5,6,7-tetrahydro-1H-imidazo[4,5-c]pyridin-2-yl)-1H-indazol-6-yl)phenol]

Structure (SMILES): CCc1cc(O)c(F)cc1-c1ccc2c(-c3nc4c([nH]3)CCN(C3CN(C5CCS(=O)(=O)C5)C3)C4)n[nH]c2c1 (stereo not drawn) [Example 1-15]
pSTAT6 inhibition in the pharmacodynamic assay [2]: noted as exceptions

fold less potent than the corresponding compound of the invention in the enzyme assay [3]: 2.5 fold | factor by which lung concentration was smaller than for the corresponding compound of the invention [5]: 23
Structure (SMILES): CCc1cc(O)c(F)cc1-c1ccc2c(-c3nc4c([nH]3)CCN(C3CCC(C)CC3)C4)n[nH]c2c1 (stereo not drawn) [Example C-4]
fold less potent than the corresponding compound of the invention in the BEAS-2B cellular assay [4]: 6 fold

Lung to Plasma ratio Assay 4 [1]: A (A denotes a ratio >100)
Structure (SMILES): CCc1cc(O)c(F)cc1-c1ccc2c(-c3nc4c([nH]3)CCN(C[C@H]3COCCN3)C4)n[nH]c2c1 [Example 13, (S)-5-Ethyl-2-fluoro-4-(3-(5-(morpholin-3-ylmethyl)-4,5,6,7-tetrahydro-1H-imidazo[4,5-c]pyridin-2-yl)-1H-indazol-6-yl)phenol]

fold less potent than the corresponding compound of the invention in the enzyme assay [3]: 2 fold | factor by which lung concentration was smaller than for the corresponding compound of the invention ([5]; balb/c, 5 h): 36
Structure (SMILES): CCc1cc(O)c(F)cc1-c1ccc2c(-c3nc4c([nH]3)CCN(C3CC(C)C3)C4)n[nH]c2c1 (stereo not drawn) [Example C-1, 5-Ethyl-2-fluoro-4-(3-(5-(3-methylcyclobutyl)-4,5,6,7-tetrahydro-1H-imidazo[4,5-c]pyridin-2-yl)-1H-indazol-6-yl)phenol]

fold less potent than the corresponding compound of the invention in the enzyme assay [3]: 6 fold | factor by which lung concentration was smaller than for the corresponding compound of the invention [5]: 13
Structure (SMILES): CCc1cc(O)c(F)cc1-c1ccc2c(-c3nc4c([nH]3)CCN(CC3CCCOC3)C4)n[nH]c2c1 (stereo not drawn) [Example C-3]
fold less potent than the corresponding compound of the invention in the BEAS-2B cellular assay [4]: 3 fold

Structure (SMILES): CCc1cc(O)c(F)cc1-c1ccc2c(-c3nc4c([nH]3)CCN(CCC(C)C)C4)n[nH]c2c1 [Example C-2]
fold less potent than the corresponding compound of the invention in the enzyme assay [3]: 3 fold | fold less potent than the corresponding compound of the invention in the BEAS-2B cellular assay [4]: 6 fold | factor by which lung concentration was smaller than for the corresponding compound of the invention [5]: 52

Lung to Plasma ratio Assay 4 [1]: A (A denotes a ratio >100)
Structure (SMILES): CCc1cc(O)c(F)cc1-c1ccc2c(-c3nc4c([nH]3)CCN(CCN(C)CC(C)C)C4)n[nH]c2c1 [Example 3-33]

weight gain (dynamic moisture sorption) [6]: less than 0.12%
Structure (SMILES): CCc1cc(O)c(F)cc1-c1ccc2c(-c3nc4c([nH]3)CCN(C3CCN(C)CC3)C4)n[nH]c2c1 [crystalline hydrate, 5-ethyl-2-fluoro-4-(3-(5-(1-methylpiperidin-4-yl)-4,5,6,7-tetrahydro-1H-imidazo[4,5-c]pyridin-2-yl)-1H-indazol-6-yl)phenol]

Lung to Plasma ratio Assay 4 [1]: A (A denotes a ratio >100)
Structure (SMILES): CCc1cc(O)c(F)cc1-c1ccc2c(-c3nc4c([nH]3)CCN(CCNC3CC(OC)C3)C4)n[nH]c2c1 (stereo not drawn) [Example 8, 5-Ethyl-2-fluoro-4-(3-(5-(2-((3-methoxycyclobutyl)amino)ethyl)-4,5,6,7-tetrahydro-1H-imidazo[4,5-c]pyridin-2-yl)-1H-indazol-6-yl)phenol]

Lung to Plasma ratio Assay 4 [1]: A (A denotes a ratio >100)
Structure (SMILES): CCc1cc(O)c(F)cc1-c1ccc2c(-c3nc4c([nH]3)CCN(C[C@@H]3COCCN3)C4)n[nH]c2c1 [Example 14, (R)-5-Ethyl-2-fluoro-4-(3-(5-(morpholin-3-ylmethyl)-4,5,6,7-tetrahydro-1H-imidazo[4,5-c]pyridin-2-yl)-1H-indazol-6-yl)phenol]
